Assay results from patent publication US8022206B2 (OSI Pharmaceuticals, LLC, priority 2008, dated 2011).

Tests used:
RON (human) = RON (human) (Homo sapiens, UniProt Q04912); experiment: RON (human) AlphaScreen kinase assay, Km of ATP; assay type: biochemical; conditions: AlphaScreen, Km of ATP; read-out: RON biochemical IC50
Procedure, shortened: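 Detection used PT66 AlphaScreen beads added in Tris pH 7.5/NaCl/EDTA/BSA buffer, read after 1 h incubation. Vehicle-only DMSO wells served as controls.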

MET (human) = MET (human) (Homo sapiens, UniProt P08581); experiment: MET (human) AlphaScreen kinase assay, Km of ATP; assay type: biochemical; conditions: AlphaScreen, Km of ATP; read-out: Met biochemical IC50
Sequence of MET (human) (P08581 25-1390): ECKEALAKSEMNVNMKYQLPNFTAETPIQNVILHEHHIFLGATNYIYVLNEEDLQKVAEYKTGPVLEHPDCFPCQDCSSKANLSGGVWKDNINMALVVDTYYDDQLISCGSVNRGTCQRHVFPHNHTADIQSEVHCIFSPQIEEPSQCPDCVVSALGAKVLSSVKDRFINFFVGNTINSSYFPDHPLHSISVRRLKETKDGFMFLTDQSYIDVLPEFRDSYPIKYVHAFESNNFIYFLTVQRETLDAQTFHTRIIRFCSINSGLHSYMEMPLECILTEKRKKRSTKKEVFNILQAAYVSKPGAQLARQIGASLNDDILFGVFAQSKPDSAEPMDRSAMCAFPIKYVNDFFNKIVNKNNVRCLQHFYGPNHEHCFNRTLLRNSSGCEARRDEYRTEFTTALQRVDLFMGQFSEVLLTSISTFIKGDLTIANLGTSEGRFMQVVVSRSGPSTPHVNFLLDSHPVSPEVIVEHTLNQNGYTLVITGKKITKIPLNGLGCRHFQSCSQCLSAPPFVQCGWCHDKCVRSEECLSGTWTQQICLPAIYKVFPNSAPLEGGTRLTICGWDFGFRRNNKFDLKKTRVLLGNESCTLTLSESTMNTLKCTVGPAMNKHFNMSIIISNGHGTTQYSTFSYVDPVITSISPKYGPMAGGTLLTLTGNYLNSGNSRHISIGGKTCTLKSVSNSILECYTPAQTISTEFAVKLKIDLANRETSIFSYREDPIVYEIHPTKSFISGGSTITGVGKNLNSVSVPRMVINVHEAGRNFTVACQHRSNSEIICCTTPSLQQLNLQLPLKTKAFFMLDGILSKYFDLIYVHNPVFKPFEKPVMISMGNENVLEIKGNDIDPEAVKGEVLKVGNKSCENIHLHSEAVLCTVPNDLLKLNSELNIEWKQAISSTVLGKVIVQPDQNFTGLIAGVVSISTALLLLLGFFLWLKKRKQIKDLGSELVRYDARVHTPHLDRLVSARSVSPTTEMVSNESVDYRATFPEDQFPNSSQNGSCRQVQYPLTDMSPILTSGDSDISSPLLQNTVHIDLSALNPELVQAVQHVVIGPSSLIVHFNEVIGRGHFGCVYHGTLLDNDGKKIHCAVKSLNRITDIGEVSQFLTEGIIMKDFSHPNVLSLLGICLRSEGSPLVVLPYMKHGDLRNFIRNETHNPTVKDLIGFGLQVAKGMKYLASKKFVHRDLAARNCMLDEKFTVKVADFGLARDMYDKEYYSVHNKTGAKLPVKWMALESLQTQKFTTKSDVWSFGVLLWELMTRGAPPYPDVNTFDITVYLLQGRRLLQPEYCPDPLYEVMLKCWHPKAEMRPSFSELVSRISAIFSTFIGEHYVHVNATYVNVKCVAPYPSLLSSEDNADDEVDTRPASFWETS
Procedure, shortened: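 Human MET at lot-optimised concentration in 50 mM Tris pH 7.4 buffer with 1 mM DTT, compound at 1% DMSO final; enzyme starts the reaction, 60 min at RT.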

Sequence of RON (human) (Q04912 25-1400): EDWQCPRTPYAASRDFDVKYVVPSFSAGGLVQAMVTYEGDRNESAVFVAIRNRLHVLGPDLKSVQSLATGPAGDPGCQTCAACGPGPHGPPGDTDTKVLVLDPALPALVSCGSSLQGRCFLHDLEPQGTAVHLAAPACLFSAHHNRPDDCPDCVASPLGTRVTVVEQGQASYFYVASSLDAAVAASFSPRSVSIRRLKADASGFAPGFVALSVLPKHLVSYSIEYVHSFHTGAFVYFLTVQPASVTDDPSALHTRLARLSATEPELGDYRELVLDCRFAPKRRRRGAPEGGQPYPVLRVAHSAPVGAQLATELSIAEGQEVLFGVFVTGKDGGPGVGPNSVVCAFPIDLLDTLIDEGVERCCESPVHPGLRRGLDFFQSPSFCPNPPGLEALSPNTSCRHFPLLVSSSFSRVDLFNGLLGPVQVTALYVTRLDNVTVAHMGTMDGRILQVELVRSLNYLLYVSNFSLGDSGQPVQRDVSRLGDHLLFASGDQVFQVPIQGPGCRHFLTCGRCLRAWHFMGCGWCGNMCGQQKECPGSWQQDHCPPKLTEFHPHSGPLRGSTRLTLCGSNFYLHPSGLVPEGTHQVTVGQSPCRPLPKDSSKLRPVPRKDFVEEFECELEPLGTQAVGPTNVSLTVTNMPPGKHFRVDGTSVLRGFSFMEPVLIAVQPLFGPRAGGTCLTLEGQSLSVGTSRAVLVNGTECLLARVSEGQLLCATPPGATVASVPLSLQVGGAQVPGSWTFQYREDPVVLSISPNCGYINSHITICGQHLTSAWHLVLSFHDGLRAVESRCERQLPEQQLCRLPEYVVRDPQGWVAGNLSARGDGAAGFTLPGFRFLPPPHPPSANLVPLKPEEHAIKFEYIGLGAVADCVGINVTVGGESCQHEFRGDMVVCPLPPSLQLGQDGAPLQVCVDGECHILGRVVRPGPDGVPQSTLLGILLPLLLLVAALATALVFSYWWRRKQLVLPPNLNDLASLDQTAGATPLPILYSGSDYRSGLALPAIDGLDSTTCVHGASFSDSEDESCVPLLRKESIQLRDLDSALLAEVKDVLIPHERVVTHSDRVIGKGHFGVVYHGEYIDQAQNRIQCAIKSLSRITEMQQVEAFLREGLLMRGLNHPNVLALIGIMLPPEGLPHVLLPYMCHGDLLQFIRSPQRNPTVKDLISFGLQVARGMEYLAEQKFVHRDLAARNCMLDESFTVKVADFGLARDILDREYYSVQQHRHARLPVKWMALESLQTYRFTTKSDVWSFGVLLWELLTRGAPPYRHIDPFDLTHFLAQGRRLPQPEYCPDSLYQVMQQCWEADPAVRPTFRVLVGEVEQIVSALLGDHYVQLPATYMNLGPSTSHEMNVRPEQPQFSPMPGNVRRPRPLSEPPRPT

| SMILES | IC50 (RON (human)) | IC50 (MET (human)) |
| --- | --- | --- |
| Nc1ncc2c(-c3cnn(C4CCNCC4)c3)coc2c1O[C@H](c1ccccc1)C(F)(F)F [Example 392, 3-(1-Piperidin-4-yl-1H-pyrazol-4-yl)-7-((R)-2,2,2-trifluoro-1-phenylethoxy)furo[3,2-c]pyridin-6-ylamine] | 500 to 5000 nM | < 500 nM |
| CC(Oc1c(N)ncc2c(-c3cnn(C4CCNCC4)c3)coc12)c1cccc(C#N)c1 (centres unmarked) [Example 393, 3-{1-[6-Amino-3-(1-piperidin-4-yl-1H-pyrazol-4-yl)furo[3,2-c]pyridin-7-yloxy]ethyl}benzonitrile] | 500 to 5000 nM | < 500 nM |
| CC(Oc1c(N)ncc2c(-c3cnn(C4CCNCC4)c3)coc12)c1ccc(C#N)cc1 (centres unmarked) [Example 394, 4-{1-[6-Amino-3-(1-piperidin-4-yl-1H-pyrazol-4-yl)furo[3,2-c]pyridin-7-yloxy]ethyl}benzonitrile] | 500 to 5000 nM | < 500 nM |
| C[C@H](Oc1c(N)ncc2c(-c3cnn(C4CCNCC4)c3)coc12)c1ccccn1 [Example 395, 3-(1-Piperidin-4-yl-1H-pyrazol-4-yl)-7-((S)-1-pyridin-2-yl-ethoxy)furo[3,2-c]pyridin-6-ylamine] | 500 to 5000 nM | 500 to 5000 nM |
| C[C@H](Oc1c(N)ncc2c(-c3cnn(C4CCNCC4)c3)coc12)c1ccncc1 [Example 396, 3-(1-Piperidin-4-yl-1H-pyrazol-4-yl)-7-((S)-1-pyridin-4-yl-ethoxy)furo[3,2-c]pyridin-6-ylamine] | 500 to 5000 nM | < 500 nM |
| C[C@@H](Oc1c(N)ncc2c(-c3cnn(C4CCNCC4)c3)coc12)c1ccncc1 [Example 397, 3-(1-Piperidin-4-yl-1H-pyrazol-4-yl)-7-((R)-1-pyridin-4-yl-ethoxy)furo[3,2-c]pyridin-6-ylamine] | 500 to 5000 nM | 500 to 5000 nM |
| CC(Oc1c(N)ncc2c(-c3cnn(C4CCNCC4)c3)coc12)c1cccnc1 (centres unmarked) [Example 398, 3-(1-Piperidin-4-yl-1H-pyrazol-4-yl)-7-(1-pyridin-3-ylethoxy)furo[3,2-c]pyridin-6-ylamine] | 500 to 5000 nM | 500 to 5000 nM |
| C[C@@H](Oc1c(N)ncc2c(-c3cnn(C4CCNCC4)c3)coc12)c1ccccn1 [Example 399, 3-(1-Piperidin-4-yl-1H-pyrazol-4-yl)-7-((R)-1-pyridin-2-yl-ethoxy)furo[3,2-c]pyridin-6-ylamine] | 500 to 5000 nM | 500 to 5000 nM |
| CC(Oc1c(N)ncc2c(-c3cnn(C4CCNCC4)c3)coc12)c1ccccc1Br (centres unmarked) [Example 400, 7-[1-(2-Bromophenyl)ethoxy]-3-(1-piperidin-4-yl-1H-pyrazol-4-yl)furo[3,2-c]pyridin-6-ylamine] | 500 to 5000 nM | < 500 nM |
| CC(Oc1c(N)ncc2c(-c3cnn(C4CCNCC4)c3)coc12)c1c(F)cccc1Cl (centres unmarked) [Example 401, 7-[1-(2-Chloro-6-fluorophenyl)ethoxy]-3-(1-piperidin-4-yl-1H-pyrazol-4-yl)furo[3,2-c]pyridin-6-ylamine] | 500 to 5000 nM | < 500 nM |
| Cc1cccc(C)c1C(C)Oc1c(N)ncc2c(-c3cnn(C4CCNCC4)c3)coc12 (centres unmarked) [Example 402, 7-[1-(2,6-Dimethylphenyl)ethoxy]-3-(1-piperidin-4-yl-1H-pyrazol-4-yl)furo[3,2-c]pyridin-6-ylamine] | 500 to 5000 nM | 500 to 5000 nM |
| CC(Oc1c(N)ncc2c(-c3cnn(C4CCNCC4)c3)coc12)c1nc2ccccc2[nH]1 (centres unmarked) [Example 403, 7-[1-(1H-Benzimidazol-2-yl)ethoxy]-3-(1-piperidin-4-yl-1H-pyrazol-4-yl)furo[3,2-c]pyridin-6-ylamine] | 500 to 5000 nM | 500 to 5000 nM |
| CC(Oc1c(N)ncc2c(-c3cnn(C4CCNCC4)c3)coc12)c1nc2ccccc2s1 (centres unmarked) [Example 404, 7-(1-Benzothiazol-2-ylethoxy)-3-(1-piperidin-4-yl-1H-pyrazol-4-yl)furo[3,2-c]pyridin-6-ylamine] | 500 to 5000 nM | 500 to 5000 nM |
| CC(Cc1ccccc1)Oc1c(N)ncc2c(-c3cnn(C4CCNCC4)c3)coc12 (centres unmarked) [Example 405, 7-(1-Methyl-2-phenylethoxy)-3-(1-piperidin-4-yl-1H-pyrazol-4-yl)furo[3,2-c]pyridin-6-ylamine] | < 500 nM | < 500 nM |
| COc1ccccc1CC(C)Oc1c(N)ncc2c(-c3cnn(C4CCNCC4)c3)coc12 (centres unmarked) [Example 406, 7-[2-(2-Methoxyphenyl)-1-methylethoxy]-3-(1-piperidin-4-yl-1H-pyrazol-4-yl)furo[3,2-c]pyridin-6-ylamine] | < 500 nM | < 500 nM |
| Nc1ncc2c(-c3cnn(C4CCNCC4)c3)coc2c1O[C@H]1CCC[C@H]1c1ccccc1 [Example 407] | 500 to 5000 nM | < 500 nM |
| Nc1ncc2c(-c3cnn(C4CCNCC4)c3)coc2c1O[C@H]1CCC[C@H]1c1cccc(F)c1 [Example 408] | 500 to 5000 nM | 500 to 5000 nM |

| SMILES | IC50 (RON (human)) | IC50 (MET (human)) |
| --- | --- | --- |
| Nc1ncc2c(-c3cnn(C4CCNCC4)c3)coc2c1O[C@H]1CCCC[C@H]1c1ccccc1 [Example 409] | 500 to 5000 nM | 500 to 5000 nM |
| COC(=O)c1cccc(C(C)Oc2c(N)ncc3c(-c4cnn(C5CCNCC5)c4)coc23)c1 (centres unmarked) [Example 410, 3-{1-[6-Amino-3-(1-piperidin-4-yl-1H-pyrazol-4-yl)furo[3,2-c]pyridin-7-yloxy]ethyl}benzoic acid methyl ester] | 500 to 5000 nM | 500 to 5000 nM |
| CC(Oc1c(N)ncc2c(-c3cnn(C4CCNCC4)c3)coc12)c1cccc(C(N)=O)c1 (centres unmarked) [Example 411, 3-{1-[6-Amino-3-(1-piperidin-4-yl-1H-pyrazol-4-yl)furo[3,2-c]pyridin-7-yloxy]ethyl}benzamide] | 500 to 5000 nM | 500 to 5000 nM |
| CNC(=O)c1cccc(C(C)Oc2c(N)ncc3c(-c4cnn(C5CCNCC5)c4)coc23)c1 (centres unmarked) [Example 412, 3-{1-[6-Amino-3-(1-piperidin-4-yl-1H-pyrazol-4-yl)furo[3,2-c]pyridin-7-yloxy]ethyl}-N-methylbenzamide] | 500 to 5000 nM | 500 to 5000 nM |
| CC(Oc1c(N)ncc2c(-c3cnn(C4CCNCC4)c3)coc12)c1ncc(C(F)(F)F)cc1Cl (centres unmarked) [Example 413, 7-[1-(3-Chloro-5-trifluoromethylpyridin-2-yl)ethoxy]-3-(1-piperidin-4-yl-1H-pyrazol-4-yl)furo[3,2-c]pyridin-6-ylamine] | 500 to 5000 nM | 500 to 5000 nM |
| C[C@@H](Cc1ccccc1)Oc1c(N)ncc2c(-c3cnn(C4CCNCC4)c3)coc12 [Example 414, 7-((S)-1-Methyl-2-phenylethoxy)-3-(1-piperidin-4-yl-1H-pyrazol-4-yl)furo[3,2-c]pyridin-6-ylamine] | 500 to 5000 nM | < 500 nM |
| C[C@H](Cc1ccccc1)Oc1c(N)ncc2c(-c3cnn(C4CCNCC4)c3)coc12 [Example 415, 7-((R)-1-Methyl-2-phenylethoxy)-3-(1-piperidin-4-yl-1H-pyrazol-4-yl)furo[3,2-c]pyridin-6-ylamine] | 500 to 5000 nM | 500 to 5000 nM |
| Nc1ncc2c(-c3cnn(C4CCNCC4)c3)coc2c1OCCc1ccccc1 [Example 416, 7-Phenethyloxy-3-(1-piperidin-4-yl-1H-pyrazol-4-yl)furo[3,2-c]pyridin-6-ylamine] | 500 to 5000 nM | 500 to 5000 nM |
| CC(Cc1c(Cl)cccc1Cl)Oc1c(N)ncc2c(-c3cnn(C4CCNCC4)c3)coc12 (centres unmarked) [Example 417, 7-[2-(2,6-Dichlorophenyl)-1-methylethoxy]-3-(1-piperidin-4-yl-1H-pyrazol-4-yl)furo[3,2-c]pyridin-6-ylamine] | 500 to 5000 nM | 500 to 5000 nM |
| CC(Cc1c(F)cccc1F)Oc1c(N)ncc2c(-c3cnn(C4CCNCC4)c3)coc12 (centres unmarked) [Example 418, 7-[2-(2,6-Difluorophenyl)-1-methylethoxy]-3-(1-piperidin-4-yl-1H-pyrazol-4-yl)furo[3,2-c]pyridin-6-ylamine] | 500 to 5000 nM | < 500 nM |
| CC(Cc1c(F)cccc1Cl)Oc1c(N)ncc2c(-c3cnn(C4CCNCC4)c3)coc12 (centres unmarked) [Example 419, 7-[2-(2-Chloro-6-fluorophenyl)-1-methylethoxy]-3-(1-piperidin-4-yl-1H-pyrazol-4-yl)furo[3,2-c]pyridin-6-ylamine] | 500 to 5000 nM | 500 to 5000 nM |
| CC(Oc1c(N)ncc2c(-c3cnn(C4CCNCC4)c3)coc12)c1ccc(C(N)=O)cc1 (centres unmarked) [Example 420, 4-{1-[6-Amino-3-(1-piperidin-4-yl-1H-pyrazol-4-yl)furo[3,2-c]pyridin-7-yloxy]ethyl}benzamide] | 5000 to 20000 nM | 500 to 5000 nM |
| CNC(=O)c1ccc(C(C)Oc2c(N)ncc3c(-c4cnn(C5CCNCC5)c4)coc23)cc1 (centres unmarked) [Example 421, 4-{1-[6-Amino-3-(1-piperidin-4-yl-1H-pyrazol-4-yl)furo[3,2-c]pyridin-7-yloxy]ethyl}-N-methylbenzamide] | 5000 to 20000 nM | 500 to 5000 nM |
| COC(=O)c1ccc(C(C)Oc2c(N)ncc3c(-c4cnn(C5CCNCC5)c4)coc23)cc1 (centres unmarked) [Example 422, 4-{1-[6-Amino-3-(1-piperidin-4-yl-1H-pyrazol-4-yl)furo[3,2-c]pyridin-7-yloxy]ethyl}benzoic acid methyl ester] | 500 to 5000 nM | 500 to 5000 nM |
| CC(Cc1ccccc1F)Oc1c(N)ncc2c(-c3cnn(C4CCNCC4)c3)coc12 (centres unmarked) [Example 423, 7-[2-(2-Fluorophenyl)-1-methylethoxy]-3-(1-piperidin-4-yl-1H-pyrazol-4-yl)furo[3,2-c]pyridin-6-ylamine] | 500 to 5000 nM | < 500 nM |
| CC(Cc1cccc(F)c1)Oc1c(N)ncc2c(-c3cnn(C4CCNCC4)c3)coc12 (centres unmarked) [Example 424, 7-[2-(3-Fluorophenyl)-1-methylethoxy]-3-(1-piperidin-4-yl-1H-pyrazol-4-yl)furo[3,2-c]pyridin-6-ylamine] | 500 to 5000 nM | < 500 nM |
| CC(Cc1ccc(F)cc1)Oc1c(N)ncc2c(-c3cnn(C4CCNCC4)c3)coc12 (centres unmarked) [Example 425, 7-[2-(4-Fluorophenyl)-1-methylethoxy]-3-(1-piperidin-4-yl-1H-pyrazol-4-yl)furo[3,2-c]pyridin-6-ylamine] | 500 to 5000 nM | < 500 nM |
